Laboratory results from article PMC7824033, “Flavones, Flavonols, and Glycosylated Derivatives—Impact on Candida albicans Growth and Virulence, Expression of CDR1 and ERG11, Cytotoxicity” (Pharmaceuticals, 2020).
Converted amounts (≈) assume the structure as drawn. “Also recorded” adds a separate entry of the source. Read-outs that look alike come from different tables or passages of the source.

Assays:
C. albicans = conditions: cited from earlier work
[1] = Cytotoxicity, Sulforhodamine B assay; conditions: pig
Protocol: Preparation of PLP2 cell line was performed with freshly harvested porcine liver supplied from a local slaughter house. Tissues from the liver were washed in Hank’s balanced salt solution comprising 100 U/mL penicillin and 100 μg/mL streptomycin and split into 1 × 1 mm^3 explants. Some of the prepared explants were set in 25 cm^2 tissue flasks in Dulbecco’s modified Eagle’s medium (DMEM) with 10% fetal bovine serum (FBS), 2 mM nonessential amino acids, 100 U/mL penicillin, and […] streptomycin, and incubation was conducted at 37 °C with 5% CO2 in a humidified atmosphere. The fresh medium was added every 2 days. Cultivation of the cells was further conducted with direct observation by the phase contrast microscope every 2–3 days. Before confluence was achieved, cells were subcultured and seeded in 96-well plates at a density of 1.0 × 10^4 cells per well and cultivated in DMEM supplemented with 10% FBS, 100 U/mL penicillin, and 100 μg/mL streptomycin. Previously described Sulforhodamine B assay was used for the determination of cytotoxicity. The obtained results were defined as GI50 values corresponding to the compound concentration that inhibits 50% of the net cell growth. Ellipticine was used as a positive control.

[2] = tested on: C. albicans 475/15 biofilm formation; assay: Inhibition of biofilm formation (crystal violet); type: cell-based, Candida albicans; conditions: for antibiofilm activity: MIC and subMICs; for inhibition of biofilm formation: compound applied at MIC
Protocol: Potential of selected compounds to interfere with C. albicans 475/15 biofilm formation was investigated as previously described. Briefly, C. albicans 475/15 was incubated with serial dilution of the compounds (MIC and subMICs) in YPD medium, in 96-well microtiter plates with adhesive bottom (Sarstedt, Nümbrecht, Germany), at 37 °C for 24 h. After incubation, wells were washed twice with sterile PBS and methanol was added into each well. After fixation, methanol was discarded, and the plate was air dried. Formed biofilms were stained with 0.1% crystal violet (Bio-Merieux, Craponne, France) for 30 min. The plate was gently washed under the tap of water and air dried. The stain bound to the remaining biofilms was dissolved with ethanol (96%, Zorka, Šabac, Serbia). Absorbance was read on a Multiskan™ FC Microplate Photometer, Thermo Scientific™. The percentage of inhibition of biofilm formation was calculated by the formula:[(A620control − A620sample)/A620control] × 100

C. albicans biofilm = conditions: C. albicans CAD1 biofilm; cited from earlier work
C. albicans 527/14 = assay: Microdilution assay, MIC and MFC; type: cell-based; conditions: Candida albicans
From the text: (§1) C. albicans was isolated from oral cavities of patients at ENT Clinic, Clinical Hospital Centre Zvezdara, Belgrade, Serbia after obtaining informed written consent and identified by using CHROMagar plates (Biomerieux, Craponne, France). Strains were maintained on Sabouraud Dextrose Agar (Merck, Darmstadt, Germany) and are deposited at the Mycological Laboratory, Department of Plant Physiology, Institute for Biological Research “Siniša Stanković”, National Institute of Republic of Serbia, University of Belgrade. The collection of samples was approved by the Ethical Committee (Office for Human Research Protection, Zvezdara University Medical Center, Belgrade, Serbia, document issued 26 October 2016).
(§2) Microdilution assay with some modification was used for determination of minimum inhibitory (MIC) and minimum fungicidal concentrations (MFC). Yeast cultures were adjusted to 1.0 × 10^5 CFU/per well with sterile PBS (Phosphate buffered saline, pH 7.4). The 96-well microtiter plates with serially diluted flavonoids (concentration range 0.3–75 µg/mL) in liquid broth were incubated at 37 °C for 24 h. After incubation, MIC and MFC were determined. The lowest concentrations that were not inducing microscopically observed growth were considered as MIC. For microscopic determination of growth, we used inverted microscope Nikon Eclipse TS2 (Amsterdam, Netherland) and examined the fungal growth in the wells of 96-well microtiter plates compared to the control (untreated yeast cells). MFC values were determined as concentrations without visible growth after serial sub-cultivation of 10 µL of samples at 37 °C for 24 h. Ketoconazole and amphotericin B (SigmaAldrich, Darmstadt, Germany) were used as an antifungal control. The tested flavonoids were obtained from Extrasynthese, Rhone, France.

C. albicans 13/15 = assay: Microdilution assay, MIC and MFC; type: cell-based; conditions: Candida albicans
From the text: as §1, §2

C. albicans 10/15 = assay: Microdilution assay, MIC and MFC; type: cell-based; conditions: Candida albicans
From the text: as §1, §2

C. albicans 475/15 = assay: Microdilution assay, MIC and MFC; type: cell-based; conditions: Candida albicans
From the text: as §1, §2

CDR1 [3] = assay: Expression of CDR1 (qPCR); type: cell-based, Candida albicans; conditions: treatment with MIC
Protocol: (§3) Total RNA was isolated as described by Sanglard et al. with some modifications. C. albicans 475/15 was grown with agitation at 30 °C in YEPD until OD540 = 0.4. C. albicans cells were incubated with MIC of compounds in YEPD at 30 °C with agitation for 30 min. Cells were centrifuged (4600 rpm, 4 °C for 5 min (Rotanata 460 R, Hettich, Tuttlingen, Germany)) and the pellet was resuspended in 300 µL of RNA buffer (0.1 M Tris-HCl pH 7.5, 0.1M LiCl, 10mM EDTA, 0.5% SDS). The pellet was homogenized with 200 µL of DEPC treated glass beads and 300 µL of Phenol:Chloroform:Isoamyl Alcohol (Sigma-Aldrich, Darmstadt, Germany) in Precellys Evolution tissue homogenizer (Bertion instruments, Montigny-le-Bretonneux, France) at 4500 rpm for 5 s. After centrifugation (14,000 rpm, 4 °C, 1 min (Universal 32 R, Hettich, Tuttlingen, Germany)) 200 µL of supernatant was vortexed with 250 µL of Phenol:Chloroform:Isoamyl Alcohol for 10 s. Samples were centrifuged (14,000 rpm, 4 °C, 1 min) and 200 µL of supernatant was transferred to new tubes, 400 µL of ice-cold 99% ethanol was added to each tube, and they were kept on dry ice for 10 min. Samples were centrifuged (14,000 rpm, 4 °C, 2 min), pellet was washed with ethanol (70%), left to dry at room temperature, after which it was dissolved in 50 µL of DEPC treated water. Nanodrop (ND-1000, Witec AG, Sursee, Switzerland) was used for determination of concentration and purity of samples. RNA was stored at −80°C.
(§4) Amount of 10 µg RNA was incubated with 5 µL of DNAse buffer and 1 µL of DNAse at 37 °C for 30 min (DNA-free™ DNA Removal Kit, Ambion, Bleiswijk, Netherlands). After addition of DNAse inactivation reagent tubes were kept at room temperature with occasional vortexing for 5 min. Samples were centrifuged (14,000 rpm, 4°C, 2 min) and the concentration and quality of supernatant were analyzed on Nanodrop (ND-1000, Witec AG, Sursee, Switzerland).
(§5) Synthesis of cDNA was done with a Transcriptor High Fidelity cDNA synthesis kit (Roche). RNA (1 µg) was incubated with 60 µM random hexamer primers, in 11.4 µL of total sample volume, at 65 °C for 10 min. The mixture of Transcriptase reaction buffer 5×, Deoxynucleotide mix, DTT, Protector RNAse inhibitor, and Transcriptor High Fidelity Reverse Transcriptase was added to each tube according to manufacturer instructions. Synthesis of cDNA was completed by incubating the mixture at 50 °C for 30 min and 85 °C for 5 min (Peqstar thermocycler, Peqlab, Erlangen, Germany).
(§6) Wells of MicroAmp Fast 96-Well Reaction plate ((0.1 mL), Applied biosystems, Waltham, MA, USA) were incubated with 10 µL of mixture (cDNA, 2× MasterMix, primers, probe (Table 3), and water). Analysis was performed in StepOnePlus Real Time PCR system with relative standard curve method. Expression levels of CDR1 and ERG11 were normalized to expression of ACT1.

Candida albicans = assay: Microdilution assay, MIC (strain not named); type: cell-based; conditions: read-out: minimum inhibitory concentration (MIC)
From the text: as §1, §2

ERG11 = assay: Expression of ERG11 (qPCR); type: cell-based, Candida albicans; conditions: treatment with MIC
Protocol: as §3, §4, §5, §6

CDR1 [4] = conditions: identical assay, previously published; cited from earlier work

## C[C@@H]1O[C@@H](Oc2c(-c3ccc(O)c(O)c3)oc3cc(O)cc(O)c3c2=O)[C@H](O)[C@H](O)[C@H]1O [Quercitrin, quercitrin]
C. albicans; C. albicans ATCC 10231, ref 17
  MIC: 100 µg/mL (≈ 223 µM)
C. albicans; C. albicans CAD1, clinical isolate
  MIC: > 512 µg/mL
[1]
  GI50: 73 ± 3 µg/mL (≈ 163 µM)
[2]
  antibiofilm activity: lowest potential to reduce biofilm formation
  inhibition of biofilm formation: less than 50%
C. albicans biofilm
  antibiofilm activity: complete lack of activity
C. albicans 527/14; 527/14
  MFC: 75 ± 3 µg/mL (≈ 167 µM)
  MIC: 37.5 ± 2 µg/mL (≈ 83.6 µM)
C. albicans 13/15; 13/15
  MFC: 75 ± 3 µg/mL (≈ 167 µM)
  MIC: 37.5 ± 1 µg/mL (≈ 83.6 µM)
C. albicans 10/15; 10/15
  MFC: 75 ± 3 µg/mL (≈ 167 µM)
  MIC: 37.5 ± 2 µg/mL (≈ 83.6 µM)
C. albicans 475/15; 475/15
  MFC: 75 ± 3 µg/mL (≈ 167 µM)
  MIC: 37.5 ± 2 µg/mL (≈ 83.6 µM)
CDR1 [3]
  impact on CDR1 expression: downregulated
Candida albicans
  MIC: 37.5 µg/mL (≈ 83.6 µM)

## C[C@@H]1O[C@@H](OC[C@H]2O[C@@H](Oc3c(-c4ccc(O)c(O)c4)oc4cc(O)cc(O)c4c3=O)[C@H](O)[C@@H](O)[C@@H]2O)[C@H](O)[C@H](O)[C@H]1O [Rutin, rutin]
C. albicans; C. albicans ATCC 10231, ref 21
  MIC: 40 µg/mL (≈ 65.5 µM)
C. albicans; C. albicans ATCC 18804
  MIC: > 1000 µg/mL
C. albicans; C. albicans CA-1
  concentration necessary for growth inhibition: 1000 µg/mL
ERG11
  impact on ERG11 expression (words): lower expression levels; also recorded: negative impact; also recorded: lowering ERG11 expression
[1]
  GI50: > 400 µg/mL
[2]
  antibiofilm activity: lowest activity against biofilm formation
  inhibition of biofilm formation: less than 50%
C. albicans biofilm
  antibiofilm activity: lack of C. albicans CAD1 antibiofilm activity
C. albicans 527/14; C. albicans 527/14, mean ± SD of three replicates, read-out: MFC
  MFC: 75 ± 1 µg/mL (≈ 123 µM)
C. albicans 527/14; C. albicans 527/14, mean ± SD of three replicates, read-out: MIC
  MIC: 37.5 ± 1 µg/mL (≈ 61.4 µM)
C. albicans 13/15; C. albicans 13/15, mean ± SD of three replicates, read-out: MFC
  MFC: 75 ± 2 µg/mL (≈ 123 µM)
C. albicans 13/15; C. albicans 13/15, mean ± SD of three replicates, read-out: MIC
  MIC: 37.5 ± 1 µg/mL (≈ 61.4 µM)
C. albicans 10/15; C. albicans 10/15, mean ± SD of three replicates, read-out: MFC
  MFC: 75 ± 2 µg/mL (≈ 123 µM)
C. albicans 10/15; C. albicans 10/15, mean ± SD of three replicates, read-out: MIC
  MIC: 37.5 ± 1 µg/mL (≈ 61.4 µM)
C. albicans 475/15; C. albicans 475/15, mean ± SD of three replicates, read-out: MFC
  MFC: 75 ± 1 µg/mL (≈ 123 µM)
C. albicans 475/15; C. albicans 475/15, mean ± SD of three replicates, read-out: MIC
  MIC: 37.5 ± 1 µg/mL (≈ 61.4 µM)
Candida albicans; C. albicans, this study, strain not given
  MIC: 37.5 µg/mL (≈ 61.4 µM)

## O=c1c(O[C@@H]2O[C@H](CO)[C@@H](O)[C@H](O)[C@H]2O)c(-c2ccc(O)cc2)oc2cc(O)cc(O)c12 [astragalin]
CDR1 [4]
  impact on CDR1 expression: inhibitory impact
